The values that follow come from paper PMC9080226 (RSC Advances, 2018).

Series [1] deals with T1, COMT in RaLS9 (Oryctolagus cuniculus, UniProt A0A5F9DQ59).
T1 sequence (A0A5F9DQ59 1-268): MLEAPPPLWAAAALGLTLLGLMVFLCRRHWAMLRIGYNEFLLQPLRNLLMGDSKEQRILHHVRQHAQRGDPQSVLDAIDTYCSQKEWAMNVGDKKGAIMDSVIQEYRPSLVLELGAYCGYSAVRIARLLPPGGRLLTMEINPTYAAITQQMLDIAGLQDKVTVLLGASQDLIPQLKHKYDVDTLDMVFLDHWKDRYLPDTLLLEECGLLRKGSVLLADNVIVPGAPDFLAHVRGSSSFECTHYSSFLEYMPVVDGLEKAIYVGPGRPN
The series is classed as in vitro ADME, New Zealand rabbits. As to conditions: formation of 3-BTMD in RaLS9; Vmax/Km.

For series [2], the target named is T2, COMT in MLS9 (Mus musculus, UniProt O88587).
T2 sequence (O88587 44-265 limits assumed): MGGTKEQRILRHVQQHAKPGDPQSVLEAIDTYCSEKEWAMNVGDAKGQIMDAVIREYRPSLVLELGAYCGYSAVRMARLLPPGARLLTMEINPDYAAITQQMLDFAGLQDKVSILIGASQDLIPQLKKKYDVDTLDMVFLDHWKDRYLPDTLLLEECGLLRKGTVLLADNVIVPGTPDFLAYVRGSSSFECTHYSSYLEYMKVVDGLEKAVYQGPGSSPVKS
Put plainly: Kinetic analysis of 3-BTD methylation in mouse liver S9. The series is classed as in vitro ADME, ICR/CD-1 mice. The conditions noted are these: formation of 3-BTMD in MLS9; Vmax/Km.

The target in series [3] is T3, COMT in DLS9 (Canis lupus familiaris, UniProt Q60F99).
T3 sequence (Q60F99 1-221): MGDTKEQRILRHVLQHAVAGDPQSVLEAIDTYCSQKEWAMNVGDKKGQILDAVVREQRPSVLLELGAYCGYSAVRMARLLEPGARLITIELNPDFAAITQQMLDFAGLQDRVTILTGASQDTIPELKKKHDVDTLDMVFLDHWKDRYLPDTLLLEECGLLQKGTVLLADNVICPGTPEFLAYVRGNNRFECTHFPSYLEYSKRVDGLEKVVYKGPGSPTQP
Put plainly: Kinetic analysis of 3-BTD methylation in dog liver S9. The series is classed as in vitro ADME, beagle dogs. As to conditions: formation of 3-BTMD in DLS9; Vmax/Km.

For series [4], the target named is T4, COMT in GpLS9 (Cavia porcellus, UniProt A0A286XRD6).
T4 sequence (A0A286XRD6 1-270): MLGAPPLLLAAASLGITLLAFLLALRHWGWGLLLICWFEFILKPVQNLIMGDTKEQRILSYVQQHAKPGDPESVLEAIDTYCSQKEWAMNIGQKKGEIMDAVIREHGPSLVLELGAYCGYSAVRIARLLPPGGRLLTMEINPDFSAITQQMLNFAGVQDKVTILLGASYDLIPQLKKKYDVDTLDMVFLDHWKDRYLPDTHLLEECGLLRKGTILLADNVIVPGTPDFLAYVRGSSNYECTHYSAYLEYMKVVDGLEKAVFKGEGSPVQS
Put plainly: Kinetic analysis of 3-BTD methylation in guinea pig liver S9. The series is classed as in vitro ADME, Dunkin-Hartley guinea pigs. The conditions noted are these: formation of 3-BTMD in GpLS9; Vmax/Km.

A further series has as its target T5, COMT in HLS9 (Homo sapiens, UniProt P21964).
T5 sequence (P21964 51-271 limits assumed): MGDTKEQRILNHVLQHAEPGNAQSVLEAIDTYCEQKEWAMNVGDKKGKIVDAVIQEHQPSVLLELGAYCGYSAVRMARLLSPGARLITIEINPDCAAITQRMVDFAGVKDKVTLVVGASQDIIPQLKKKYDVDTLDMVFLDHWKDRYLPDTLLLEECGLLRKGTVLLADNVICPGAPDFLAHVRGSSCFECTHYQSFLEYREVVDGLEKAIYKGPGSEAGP
Put plainly: Kinetic analysis of 3-BTD methylation in human liver S9. The series is classed as in vitro ADME, humans. The conditions noted are these: formation of 3-BTMD in HLS9; Vmax/Km.

In the next series the target is T6, COMT in RLS9 (Rattus norvegicus, UniProt P22734).
T6 sequence (P22734 44-264 limits assumed): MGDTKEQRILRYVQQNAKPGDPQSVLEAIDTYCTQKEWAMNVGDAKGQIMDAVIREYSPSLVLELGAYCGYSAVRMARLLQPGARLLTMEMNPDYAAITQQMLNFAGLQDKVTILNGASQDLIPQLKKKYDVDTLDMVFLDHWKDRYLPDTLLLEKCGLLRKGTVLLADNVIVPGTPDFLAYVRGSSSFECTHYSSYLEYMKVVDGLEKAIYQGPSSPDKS
Put plainly: Kinetic analysis of 3-BTD methylation in rat liver S9. The conditions noted are these: formation of 3-BTMD in RLS9; Vmax/Km. The series is classed as in vitro ADME, Sprague-Dawley rats.

For series [5], the target named is T4, COMT in GpLS9. Put plainly: Chemical inhibition assay of 3-BTD methylation in guinea pig liver S9. The series is classed as biochemical, Dunkin-Hartley guinea pigs.
The target in series [6] is T1, COMT in RaLS9. Put plainly: biochemical.
The target in another series is T7, COMT in CyLS9 (Macaca fascicularis, UniProt A0A7N9CL08).
T7 sequence (A0A7N9CL08 1-274): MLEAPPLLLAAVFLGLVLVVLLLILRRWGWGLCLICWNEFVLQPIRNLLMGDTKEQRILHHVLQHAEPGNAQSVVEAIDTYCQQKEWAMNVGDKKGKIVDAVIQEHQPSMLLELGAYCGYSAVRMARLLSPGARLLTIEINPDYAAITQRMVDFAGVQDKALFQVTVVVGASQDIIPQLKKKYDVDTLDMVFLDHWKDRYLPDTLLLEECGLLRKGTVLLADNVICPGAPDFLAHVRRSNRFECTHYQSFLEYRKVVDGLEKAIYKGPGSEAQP
Put plainly: Chemical inhibition assay of 3-BTD methylation in cynomolgus monkey liver S9.

In series [7] the target is T2, COMT in MLS9. Put plainly: biochemical.
Series [8] deals with mammalian COMT in liver S9. As to conditions: tolcapone 1000 nM, liver S9 from all the test species.
The test system of series [9] is COMT in RaLS9.
Series [10] deals with T3, COMT in DLS9. Put plainly: Chemical inhibition assay of 3-BTD methylation in dog liver S9. The series is classed as biochemical, beagle dogs.

SMILES strings stand for the structures.

In the case of `O=c1oc2c(O)c(O)ccc2cc1-c1nc2ccccc2s1` [3-BTD, 3-(benzo[d]thiazol-2-yl)-7,8-dihydroxy-2H-chromen-2-one], the Clint at COMT in RaLS9 [1] was 235 µL/min/mg; on COMT in MLS9 [2], 523 µL/min/mg; on COMT in DLS9 [3], 627 µL/min/mg; on COMT in GpLS9 [4] it was 191 µL/min/mg; on COMT in HLS9 it was 112 µL/min/mg; at COMT in RLS9, 763 µL/min/mg.
In general, IC50 refers to the concentration needed to halve the response being measured. Turning to `Cc1ccc(C(=O)c2cc(O)c(O)c([N+](=O)[O-])c2)cc1` [tolcapone], the IC50 amounted to 0.108 ± 0.0071 µM against COMT in GpLS9 [5]; 0.117 ± 0.0103 µM against COMT in RaLS9 [6]; 0.0187 ± 0.003 µM at COMT in CyLS9 (CyLS9 0.2 mg ml^−1, 3-BTD (1 μM) 8-O-methylation as probe reaction, mean ± S.E.); 0.029 ± 0.0039 µM on COMT in MLS9 [7]; 0.0208 ± 0.0027 µM on COMT in DLS9 [10]. Further, the “inhibitory potency (IC50) in animal liver S9 versus HLS9” value is reported as 1.1 fold against COMT in CyLS9 (CyLS9 versus HLS9) and 6.9 fold in the series on COMT in RaLS9 [9]. Moreover, the “inhibition of mammalian COMT-mediated 3-BTD methylation” value in [8] is given as “strongly inhibit”.
